One series has as its system mice. Briefly: Mouse intradermal formalin test. Type of series: in vivo. The conditions noted are these: formalin 4.5% into hind paw. The protocol: In this model, mice receive an injection of formalin (4.5%, 20 μl) into the left hind paw. The irritation caused by the formalin injection elicits a characteristic biphasic behavioural response, as quantified by the amount of time spent licking the injured paw. The first phase (˜0-10 minutes) represents direct chemical irritation and nociception, whereas the second (˜20-30 minutes) is thought to represent pain of neuropathic origin. The two phases are separated by a quiescent period in which behaviour returns to normal. The effectiveness of test compounds to reduce the painful stimuli is assessed by counting the amount of time spent licking the injured paw in the two phases.

For series [1], the target named is Human serotonin transporter (Homo sapiens, UniProt P31645). Briefly: Human serotonin transporter, blockade of 5-HT uptake. Format: biochemical.
The subject of the next series is healthy subjects. In words: Clinical trials in healthy subjects, sexual dysfunction reported. Format: in vivo, human. The conditions noted are these: of 114 healthy subjects exposed.
Series [2] deals with patients. In words: Clinical trial in patients, HAM-D sleep items 4, 5 and 6. Type of series: in vivo, human. The following applies: 5 and 10 mg daily against placebo, 6 weeks, approximately 100 patients per arm, HBr salt, FIGS. 23-25. On the procedure:
(§1) The HAM-D scale may be used to assess the severity of depression in patients by means of a 24 items questionnaire. Item 4, 5 and 6 of the scale relate to how the patients sleep, i.e. is it easy to fall asleep (insomnia Early), does the patient wake up during the night (Insomnia Middle), and does the patient wake up early in the morning (Insomnia Late). The compound was tested at 5 and 10 mg daily against placebo with approximately 100 patients per arm.

The target of a further series is T1, human 5HT3 receptor (Homo sapiens, UniProt P46098).
T1 sequence (P46098 24-478): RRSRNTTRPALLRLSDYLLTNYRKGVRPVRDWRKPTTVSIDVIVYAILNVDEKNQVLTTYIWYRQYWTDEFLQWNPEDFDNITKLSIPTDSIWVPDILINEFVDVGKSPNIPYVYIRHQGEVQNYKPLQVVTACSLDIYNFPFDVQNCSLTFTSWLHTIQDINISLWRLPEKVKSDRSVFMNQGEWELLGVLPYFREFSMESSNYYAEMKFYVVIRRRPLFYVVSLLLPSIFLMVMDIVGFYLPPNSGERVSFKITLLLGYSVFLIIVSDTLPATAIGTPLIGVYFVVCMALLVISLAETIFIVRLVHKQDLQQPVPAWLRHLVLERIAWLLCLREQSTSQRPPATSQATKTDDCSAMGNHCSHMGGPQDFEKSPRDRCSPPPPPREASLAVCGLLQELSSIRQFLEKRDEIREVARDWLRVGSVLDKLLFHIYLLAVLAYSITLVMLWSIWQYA
Briefly: Human 5HT3 receptor in vitro binding assay.

In series [3] the test system is patients. In words: Clinical trial in patients, sexually related adverse effects reported. The conditions noted are these: approximately 100 patients. Type of series: in vivo, human. The protocol: as §1
This notion was further supported by clinical trials conducted in patients. The above mentioned clinical trial in patients also captured sexual adverse effects reported by the patients.

The target of a further series is T2, Human 5-HT3A receptor (Homo sapiens, UniProt P46098).
T2 sequence (P46098 24-478): T1 sequence (P46098 24-478)
Briefly: Human 5-HT3A receptor functional assay. Type of series: biochemical. The following applies: read-out: IC50 (antagonism in functional assay).

A further series concerns the target T3, Rat 5-HT3 receptor (Rattus norvegicus, UniProt P35563).
T3 sequence (P35563 24-483): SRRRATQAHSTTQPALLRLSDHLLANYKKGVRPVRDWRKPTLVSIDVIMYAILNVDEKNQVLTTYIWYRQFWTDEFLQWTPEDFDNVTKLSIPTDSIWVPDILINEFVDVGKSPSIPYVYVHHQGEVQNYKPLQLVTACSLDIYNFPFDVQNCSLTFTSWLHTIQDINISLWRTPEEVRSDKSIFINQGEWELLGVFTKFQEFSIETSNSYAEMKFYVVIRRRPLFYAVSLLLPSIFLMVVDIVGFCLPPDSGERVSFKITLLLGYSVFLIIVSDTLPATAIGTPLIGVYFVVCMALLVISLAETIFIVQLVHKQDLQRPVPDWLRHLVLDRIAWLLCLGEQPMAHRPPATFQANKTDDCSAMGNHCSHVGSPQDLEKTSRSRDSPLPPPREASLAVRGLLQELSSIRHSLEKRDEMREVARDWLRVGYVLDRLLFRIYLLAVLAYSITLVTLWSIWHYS
Briefly: Rat 5-HT3 receptor functional assay (antagonism). Format: biochemical.

In general, IC50 refers to the concentration at which inhibition is half-maximal. The term Ki denotes a dissociation constant, usually derived from enzyme kinetics or from competition with a known ligand. Read a low Ki as tighter binding.

Chain of Human serotonin transporter (P31645 whole entry): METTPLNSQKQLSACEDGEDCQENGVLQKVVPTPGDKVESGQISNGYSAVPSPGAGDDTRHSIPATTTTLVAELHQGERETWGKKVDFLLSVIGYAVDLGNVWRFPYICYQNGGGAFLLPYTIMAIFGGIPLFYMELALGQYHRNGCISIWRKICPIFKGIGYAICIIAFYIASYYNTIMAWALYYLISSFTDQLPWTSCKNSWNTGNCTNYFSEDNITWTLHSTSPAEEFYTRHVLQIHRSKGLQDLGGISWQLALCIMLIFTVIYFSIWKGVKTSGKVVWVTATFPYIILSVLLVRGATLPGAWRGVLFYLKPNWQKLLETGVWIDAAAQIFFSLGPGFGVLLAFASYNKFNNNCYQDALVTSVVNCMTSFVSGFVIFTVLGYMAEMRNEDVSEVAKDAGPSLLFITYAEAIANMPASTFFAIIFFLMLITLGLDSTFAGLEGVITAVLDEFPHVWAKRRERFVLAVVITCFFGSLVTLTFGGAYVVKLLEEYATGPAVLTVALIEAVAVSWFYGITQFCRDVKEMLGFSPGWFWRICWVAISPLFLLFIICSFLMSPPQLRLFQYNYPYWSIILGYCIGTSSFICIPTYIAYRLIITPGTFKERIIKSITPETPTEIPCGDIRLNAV

Turning to `Cc1ccc(Sc2ccccc2N2CCNCC2)c(C)c1` [compound I, 1-[2-(2,4-dimethylphenylsulfanyl)-phenyl]piperazine], in the series on mice (FIG. 18a, highest dose), the “first phase scores (time spent licking the paw, 0-5 minutes)” value is listed as “significant reduction”. Besides, the “second phase pain scores (time spent licking the paw, 20-30 minutes)” value with mice (FIG. 18b) is listed as “significant reduction”. In addition, half-maximal inhibition in series [1] (IC50) required 40 nM. For the same compound, the “number of subjects reporting sexual dysfunction” value in the series with healthy subjects was “one”. Moreover, in the series on patients [2], the “sleep pattern, HAM-D items 4, 5 and 6 (Insomnia Early, Middle, Late)” value is “large and dose dependent improvement”. The compound also displayed a Ki at human 5HT3 receptor of 4.5 nM. Moreover, in the series with patients [3] (5 mg daily), the “number of patients reporting Anorgasmia” value was 0, the “number of patients reporting Ejaculation delayed” value is reported as 0, the “number of patients reporting Erectile dysfunction” value turned out to be 0 and the “number of patients reporting Libido decreased” value was 1. For the same compound, in the series on patients [3] (5 mg daily), the “number of patients reporting Loss of libido” value is 1, the “number of patients reporting Orgasm abnormal” value came to 0 and the “number of patients reporting Orgasmic sensation decreased” value is reported as 0. In the series with patients [3] (10 mg daily), the “number of patients reporting Anorgasmia” value was 0, the “number of patients reporting Ejaculation delayed” value was determined as 0, the “number of patients reporting Erectile dysfunction” value was found to be 0 and the “number of patients reporting Libido decreased” value turned out to be 1. In the series with patients [3] (10 mg daily), the “number of patients reporting Loss of libido” value was found to be 0, the “number of patients reporting Orgasm abnormal” value was 0 and the “number of patients reporting Orgasmic sensation decreased” value was found to be 0. For the same compound, the IC50 on Human 5-HT3A receptor is about 20 nM. This compound yielded an IC50 at Rat 5-HT3 receptor of 0.2 nM.

For the origin of these results see patent US8664225B2, “1-[2-(2,4-dimethylphenylsulfanyl)-phenyl] piperazine as a compound with combined serotonin reuptake, 5-HT3 and 5-HT1A activity for the treatment of pain or residual symptoms in depression relating to sleep and cognition” (H. Lundbeck A/S, priority 2007, dated 2014).
